Read-outs that look alike come from different tables or passages of the source.

The values below come from patent US6337397B1, “Pyrimidine derivatives and their salts, useful for making benzoxazepine derivatives” (Suntory Limited, priority 1995, dated 2002).

The test system of one test is male Wistar rats. Kind of test: Anticonflict action, NaCl-Lick conflict method. The following applies: Rattus norvegicus, po, 1 hour before the test; number of licks in 5 minutes of 2% saline; rats deprived of water for 48 hours; read-out: Minimum effective dosage. The class given is in vivo. On the procedure: The anticonflict action of the compounds of the general formulae (I), (II), and (III) was evaluated in accordance with the NaCl-Lick conflict method of Tanga et al. (Pharmacol., Biochem., Behav., vol. 32, pp. 773-776, 1989). That is, six-week old male Wistar rats in groups of six to 10 were deprived of water for 48 hours and placed in an experimental apparatus placed in a soundproof box (apparatus made of acrylic resin, 20×20×30 cm, provided with a drinking outlet having a diameter of 1 cm at height of 8 cm from the floor, designed to be able to measure the number of drops per unit hour by a drinkometer), and the anticonflict action of the medicament was evaluated using as an indicator the number of drops (number of licks) in 5 minutes from the start of drinking of 2% saline. The tested medicament was orally administered in an amount of 0.2 ml/100 g body weight 1 hour before the start of the test.

In test [1] the target is T1, serotonin 5-HT1A receptor (Rattus norvegicus, UniProt P19327).
T1 construct: the hippocampuses extracted from male Wistar rats were homogenized; from tissue; host or cells: rat hippocampus membrane homogenate
T1 sequence (P19327 1-422): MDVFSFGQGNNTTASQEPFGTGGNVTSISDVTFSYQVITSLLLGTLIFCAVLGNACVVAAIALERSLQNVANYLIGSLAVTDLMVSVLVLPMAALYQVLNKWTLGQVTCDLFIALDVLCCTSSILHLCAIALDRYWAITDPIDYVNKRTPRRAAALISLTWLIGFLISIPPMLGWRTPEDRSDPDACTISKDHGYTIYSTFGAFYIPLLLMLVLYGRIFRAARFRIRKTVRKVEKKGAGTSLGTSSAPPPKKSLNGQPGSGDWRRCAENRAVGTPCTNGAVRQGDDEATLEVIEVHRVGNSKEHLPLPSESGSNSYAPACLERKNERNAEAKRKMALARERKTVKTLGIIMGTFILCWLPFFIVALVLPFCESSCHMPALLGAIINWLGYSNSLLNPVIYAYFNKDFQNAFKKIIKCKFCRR
Briefly: Affinity with serotonin receptor, [3H]8-OH-DPAT binding. On the set-up: species or system male Wistar rats. The following applies: for D2/5-HT1A: ratio of IC50 (D2) to IC50 (5-HT1A). On the procedure:
The affinity of the compounds of the general formulas (I), (II), and (III) with a serotonin receptor was evaluated in accordance with the method of S. T. Peuroutka et al. (J. Neurochem., vol. 47, pp. 529-540, 1986). That is, the hippocampuses extracted from male Wistar rats were homogenized while adding 50 mM tris-phosphate buffer (pH 7.7). The homogenate was centrifuged at […] and 40000×g for 10 minutes. The same buffer was added to the obtained precipitate, then this was homogenized again and was similarly centrifuged to obtain the precipitate. This homogenization-centrifugation operation was repeated two times to obtain a final precipitate to which was then added 10 uM of N-methyl-N-2-propynylbenzylamine (Pargyline), 4 mM of calcium chloride, and 0.1% ascorbic acid contained in a 50 mM tris-phosphate buffer (ph 7.7). This was then homogenized to prepare the serotonin receptor.
For the binding experiment, 0.4 nM of [3H]2-di-n-propylamino-8-hydroxy-1,2,3,4-tetrahydronapthalene (8-DPAT; 8-hydroxy-N,N-dipropyl-2-aminotetetrilin) was used, various concentrations of test samples were added to a system of 0.25 mg/ml of protein or a total of 0.25 ml, and these were incubated at 25° C. for 30 minutes. A Whatman GF/C filter was used to filter each of the reaction solutions, then the filter was washed by 20 mM tris-phosphate buffer (pH 7.7). The serotonin receptor was trapped by the filter and the radio activity of the 8-OH-DAPT bonded to it was measured to find the degree of binding. The 50% inhibiting concentration of binding affinity (IC50) was calculated from the degrees of binding in the various sample concentrations. […] The IC50 values of typical compounds are shown together with the IC50 values with respect to the dopamine D2 receptor.

The target in the next test is T2, dopamine D2 receptor (Rattus norvegicus, UniProt P61169).
T2 construct: the corpus striatums excised from male Wistar rats were homogenized; from tissue; host or cells: rat corpus striatum membrane homogenate
Briefly: Affinity with dopamine D2 receptor, [3H]Raclopride binding. On the set-up: species or system male Wistar rats. The following applies: 1.0 nM [3H]Raclopride, rat corpus striatum preparation, 25° C., 60 minutes. As to the method: The affinity of the compounds of the general formulas (I), (II), and (III) with a dopamine D2 receptor was evaluated in accordance with the method of Kakohler et al. (Biochem. Pharmacol., vol. 34, pp. 2251-2259, 1985). That is, the corpus striatums excised from male Wistar rats were homogenized with the addition of 120 mM sodium chloride, 5 mM potassium chloride, 2 mM calcium chloride, 1 mM magnesium chloride, and 0.01% ascorbic acid contained in 50 mM tris-phosphate buffer (pH 7.7). The homogenate was centrifuged at […] and 35000×g for 10 minutes. The same buffer was added to the resultant precipitate,then this was homogenized again and was similarly centrifuged to obtain the precipitate. The same buffer was added to this precipitate which was then again homogenized to prepare the dopamine D2 receptor.
For the binding experiment, use was made of 1.0 nM of [3H]3,5-dichloro-N-[(1-ethyl-2-pyrrolidinyl)methyl]-6-hydroxy-o-anisamide (Raclopride), various concentrations of test samples were added to a system of 0.34 mg/ml of protein or a total of 0.25 ml, incubation was performed at 25° C. for 60 minutes, then the radioactivity was measured in the same way as in the Evaluation Example 1 to find the degree of binding.
The 50% inhibiting concentration of binding affinity (IC50) was calculated from the degrees of binding at various concentrations of the added samples. […] The IC50 values of typical compounds are shown together with the IC50 values for the serotonin receptor.

The subject of a further test is Wistar male rats. Briefly: Ischemic brain tissue damage, transient right middle cerebral artery occlusion (MCAO) model. The class given is in vivo. The settings on record: Rattus norvegicus, sc, 240 h; s.c., immediately after occlusion; 60 minutes occlusion; brain tissue damage 10 days after restart of blood flow (number of benzodiazepine bindings); read-out: Minimum effective dosage. On the procedure:
The evaluation of the efficacy on ischemic brain damage of the compounds of the general formulae (I), (II), and (III) was performed using the transient right middle cerebral artery occlusion (MCAO) model of Koizumi et al. (Jap. J. Stroke, vol. 8, pp. 1 to 8, 1986). That is, 10 to 11 week old Wistar male rats were used and the right middle cerebral artery was temporarily obstructed for 60 minutes. 10 days after the restart of the blood flow, the brains were excised and the degree of brain tissue damage of the cerebral cortex and corpus striatum of the obstructed side were evaluated by the damage marker of the number of benzodiazepine bindings. The tested drugs were dissolved in physiological saline and administered subcutaneously at the backs of the rats immediately after the right middle cerebral artery occlusion. As a control, physiological saline of […] body weight was similarly administered.

Where [2] appears, read: 0.4 nM [3H]8-OH-DPAT, rat hippocampus preparation, 25° C., 30 minutes, read-out: IC50 (5-HT1A).

T2 sequence (P61169 whole entry): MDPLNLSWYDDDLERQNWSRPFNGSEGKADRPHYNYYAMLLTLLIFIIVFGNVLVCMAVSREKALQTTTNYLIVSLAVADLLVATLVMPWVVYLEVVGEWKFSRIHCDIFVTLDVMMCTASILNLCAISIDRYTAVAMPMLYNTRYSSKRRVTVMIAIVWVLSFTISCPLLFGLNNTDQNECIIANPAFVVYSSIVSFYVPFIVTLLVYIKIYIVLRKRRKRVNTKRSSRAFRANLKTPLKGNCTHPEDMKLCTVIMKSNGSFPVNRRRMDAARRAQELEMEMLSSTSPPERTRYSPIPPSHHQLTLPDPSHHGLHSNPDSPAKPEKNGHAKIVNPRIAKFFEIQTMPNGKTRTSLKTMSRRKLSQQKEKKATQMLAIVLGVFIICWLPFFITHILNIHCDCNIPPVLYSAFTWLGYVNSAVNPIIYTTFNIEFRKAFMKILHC

Consider `CCC1=COc2ccccc2C(=O)N1CCCCN1CCN(c2ccccn2)CC1` [Example 36, 4,5-dihydro-3-ethyl-4-(4-(4-(2-pyridyl)piperazin-1-yl)butyl)-1,4-benzoxazepin-5-one], for which the minimal effective dose in the test on male Wistar rats was 30 mg/kg.
As a reminder, the IC50 is the concentration that gives 50% inhibition. As for `CC1=COc2ccc(F)cc2C(=O)N1CCCCN1CCN(c2cccc(Cl)n2)CC1` [Example 41, 4-(4-(4-(2-chloropyridin-6-yl)piperazin-1-yl)butyl)-4,5-dihydro-7-fluoro-3-methyl-1,4-benzoxazenin-5-one], in the test on male Wistar rats, the minimal effective dose is 10 mg/kg. For the same compound, the concentration for half-maximal inhibition (IC50) came out at 0.0017 µM in test [1] (setting [2]) and 0.266 µM at dopamine D2 receptor. The D2/5-HT1A in test [1] was 156.
For `O=C1c2ccccc2OC=C(Cl)N1CCCCN1CCN(c2ncnc3ccccc23)CC1` [Example 47, 3-chloro-4,5-dihydro-4-(4-(4-(4-quinazolyl)piperazin-1-yl)butyl)-1,4-benzoxazepin-5-one], the IC50 in test [1] (setting [2]) was determined as 0.0038 µM; at dopamine D2 receptor it was 1.39 µM. The D2/5-HT1A in test [1] came to 366.
For `Cc1ccc2c(c1)C(=O)N(CCCCN1CCN(c3ncccn3)CC1)C(Cl)=CO2` [Example 49, 3-chloro-4,5-dihydro-7-methyl-4-(4-(4-(2-pyrimidinyl)-piperazin-1-yl)butyl)-1,4-benzoxazepin-5-one] the same measures were 0.00088 µM, 0.405 µM and 460.
For the compound `CC1=COc2ccccc2C(=O)N1CCCCN1CC=C(c2ncccn2)CC1` [Example 53, 4,5-dihydro-3-methyl-4-(4-(4-(2-pyrimidinyl)-1,2,5,6-tetrahydropyridin-1-yl)butyl)-1,4-benzoxazepin-5-one], in test [1], the 50% inhibitory concentration (IC50) came out at 0.011 µM and the D2/5-HT1A worked out at 89. The same compound gave an IC50 at dopamine D2 receptor of 0.979 µM.
With `CC1=COc2ccccc2C(=O)N1CCCCN1CCC(c2ncccn2)CC1` [Example 54, 4,5-dihydro-3-methyl-4-(4-(4-(2-pyrimidinyl)piperidin-1-yl)butyl)-1,4-benzoxazepin-5-one], the minimal effective dose in the test on male Wistar rats was 10 mg/kg.
`CC1=COc2ccc(F)cc2C(=O)N1CCCCN1CC=C(c2ncccn2)CC1` [Example 55, 4,5-dihydro-7-fluoro-3-methyl-4-(4-(4-(2-pyrimidinyl)-1,2,5,6-tetrahydropyridin-1-yl)butyl)-1,4-benzoxazepin-5-one]: in test [1], the half-maximal inhibitory concentration (IC50) was determined as 0.013 µM and the D2/5-HT1A was 96. On dopamine D2 receptor, this compound showed an IC50 of 1.25 µM.
`O=C1c2ccccc2OC=C(Cl)N1CCCCN1CCC(c2ncccn2)CC1` [Example 57, 3-chloro-4,5-dihydro-4-(4-(4-(2-pyrimidinyl)piperidin-1-yl)butyl)-1,4-benzoxazepin-5-one]: the figures for the IC50 (in test [1] (setting [2]); at dopamine D2 receptor) were 0.00581 µM and 1.8 µM, respectively. Besides, the D2/5-HT1A in test [1] amounted to 310.
With `O=C1c2ccc(Cl)cc2OC=C(Cl)N1CCCCN1CC=C(c2ncccn2)CC1` [Example 59, 3,8-dichloro-4,5-dihydro-4-(4-(4-(2-pyrimidinyl)-1,2,5,6-tetrahydropyridin-1-yl)butyl)-1,4-benzoxazepin-5-one], in the test on Wistar male rats, the minimal effective dose is 1 mg/kg. For the same compound, in test [1], the 50% inhibitory concentration (IC50) came out at 0.00065 µM and the D2/5-HT1A came to 525. Further, the IC50 on dopamine D2 receptor is 0.341 µM.
With `O=C1c2ccc(Cl)cc2OC=C(Cl)N1CCCCN1CCC(c2ncccn2)CC1` [Example 60, 3,8-dichloro-4,5-dihydro-4-(4-(4-(2-pyrimidinyl)piperidin-1-yl)butyl)-1,4-benzoxazepin-5-one], the minimal effective dose in the test on Wistar male rats stood at 1 mg/kg. Further, the IC50 in test [1] (setting [2]) was 0.00111 µM; at dopamine D2 receptor it was 1.28 µM. Besides, the D2/5-HT1A in test [1] came to 1153.
Take `COc1ccc2c(c1)OC=C(Cl)N(CCCCN1CC=C(c3ncccn3)CC1)C2=O` [Example 61, 3-chloro-4,5-dihydro-8-methoxy-4-(4-(4-(2-pyrimdinyl)-1,2,5,6-tetrahydropyridin-1-yl)butyl)-1,4-benzoxazepin-5-one]: in the test with Wistar male rats, the minimal effective dose is 1 mg/kg. In test [1], the IC50 was 0.00068 µM and the D2/5-HT1A is listed as 376. Further, the 50% inhibitory concentration (IC50) on dopamine D2 receptor amounted to 0.256 µM.
As to `O=C1c2ccc(Cl)cc2OC=C(Cl)N1CCCCN1CC=C(c2ccccn2)CC1` [Example 66, 3,8-dichloro-4,5-dihydro-4-(4-(4-(2-pyridyl)-1,2,5,6-tetrahydropyridin-1-yl)butyl)-1,4-benzoxazepin-5-one], in test [1], the half-inhibitory concentration (IC50) is 0.00058 µM and the D2/5-HT1A came to 221. For the same compound, the half-inhibitory concentration (IC50) on dopamine D2 receptor was 0.128 µM.
Regarding `O=C1c2ccc(Cl)cc2OC=C(Cl)N1CCCCN1CCC(c2ccccn2)CC1` [Example 67, 3,8-dichloro-4,5-dihydro-4-(4-(4-(2-pyridyl)piperidin-1-yl)butyl)-1,4-benzoxazepin-5-one], the concentration for half-maximal inhibition (IC50) amounted to 0.00044 µM in test [1] (setting [2]) and 0.359 µM at dopamine D2 receptor. For the same compound, in test [1], the D2/5-HT1A came out at 816.
Turning to `CC1=COc2ccc(C)cc2C(=O)N1CCCCN1CC=C(c2ccccn2)CC1` [Example 74, 4,5-dihydro-3,7-dimethyl-4-(4-(4-(2-pyridyl)-1,2,5,6-tetrahydropyridin-1-yl)butyl)-1,4-benzoxazepin-5-one], in test [1], the half-inhibitory concentration (IC50) came to 0.00441 µM and the D2/5-HT1A amounted to 77. For the same compound, at dopamine D2 receptor, the half-maximal inhibitory concentration (IC50) is 0.338 µM.
With `CC1=COc2ccccc2C(=O)N1CCCCN1CC=C(c2ccccn2)CC1` [Example 84, 4,5-dihydro-3-methyl-4-(4-(4-(2-pyridyl)-1,2,5,6-tetrahydropyridin-1-yl)butyl)-1,4-benzoxazepin-5-one], the minimal effective dose in the test with Wistar male rats is 0.3 mg/kg.
